Laboratory results reported in PubChem BioAssay (NCI).
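A five-concentration, 48-hour dose response in 96-well plates underlies each endpoint, interpolated linearly between surrounding concentrations. The concentration for 50% growth inhibition is given as GI50. TGI denotes the concentration required for complete inhibition of growth.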

Columns and labels:
Assay in all cases: NCI-60 cell line screen, 48 h
786-0 renal = test system: 786-0 renal
A498 renal = test system: A498 renal
COLO 205 colon = test system: COLO 205 colon
HCC-2998 colon = test system: HCC-2998 colon
HOP-92 NSCLC = test system: HOP-92 NSCLC
SF-268 CNS = test system: SF-268 CNS
SK-MEL-2 melanoma = test system: SK-MEL-2 melanoma
TK-10 renal = test system: TK-10 renal
NCI/ADR-RES ovarian = test system: NCI/ADR-RES ovarian
PC-3 prostate = test system: PC-3 prostate

Compound	TGI (786-0 renal)	TGI (A498 renal)	TGI (COLO 205 colon)	TGI (HCC-2998 colon)	TGI (HOP-92 NSCLC)	TGI (SF-268 CNS)	TGI (SK-MEL-2 melanoma)	TGI (TK-10 renal)	GI50 (786-0 renal)	GI50 (A498 renal)	GI50 (COLO 205 colon)	GI50 (HCC-2998 colon)	GI50 (HOP-92 NSCLC)	GI50 (NCI/ADR-RES ovarian)	TGI (NCI/ADR-RES ovarian)	GI50 (SF-268 CNS)	GI50 (SK-MEL-2 melanoma)	GI50 (TK-10 renal)	GI50 (PC-3 prostate)	TGI (PC-3 prostate)
CCC1(c2ccncc2)CCC(=O)NC1=O (configuration not stated)	> 100 µM	> 100 µM	> 100 µM	> 100 µM	> 100 µM	> 100 µM	> 100 µM	> 100 µM												
O=C(CN1C(=O)c2ccccc2C1=O)OC1C=CCCC1 (configuration not stated)	> 100 µM	> 100 µM	> 100 µM	> 100 µM		> 100 µM	> 100 µM	> 100 µM												
O=c1cc(-c2ccccc2)oc2cc(OCc3cn(Cc4ccc(F)cc4)nn3)cc(O)c12	42.1 µM	> 100 µM	> 100 µM	> 100 µM	45.5 µM	> 100 µM	36.1 µM	28.6 µM	9.26 µM	42 µM	> 100 µM	> 100 µM	4.43 µM	5.57 µM	> 100 µM	4.32 µM	6.8 µM	10.4 µM		
CCCCCCCCCCSS(=O)(=O)c1ccc(C)cc1	17.8 µM	35 µM	33.6 µM	39.3 µM	27.2 µM	19 µM	12.4 µM	37.9 µM												
Cc1ccc(S(=O)(=O)NC(C)C(=O)O)cc1 (configuration not stated)	> 100 µM	> 100 µM	> 100 µM	> 100 µM	> 100 µM	> 100 µM	> 100 µM	> 100 µM												
CN1NC(c2ccccc2)=C(C#N)C(=O)CC1c1ccccc1Cl (configuration not stated)	> 100 µM		> 100 µM	> 100 µM	> 100 µM	> 100 µM	> 100 µM	> 100 µM												
O=C(O)c1cc2c3c(c1)[C@H]1C=CC[C@H]1CN3CC1CC=CC21 (some centres not stated)	> 100 µM	> 100 µM	> 100 µM	> 100 µM	> 100 µM	> 100 µM	> 100 µM	> 100 µM												
C#Cc1cccc(N2C(=O)CC(=P(c3ccccc3)(c3ccccc3)c3ccccc3)C2=O)c1	75.7 µM	> 100 µM	> 100 µM	> 100 µM		> 100 µM	> 100 µM	> 100 µM												
CC[O+]=c1cccc2ssnc1-2	> 100 µM	> 100 µM	> 100 µM	> 100 µM		> 100 µM	> 100 µM	> 100 µM												
COc1ncnc2c1ncn2C/C(Br)=C(\Br)CCl	11.5 µM		3.18 µM	31.2 µM	16.4 µM	5.59 µM		7.64 µM	3.38 µM		1.73 µM	17.2 µM	4.08 µM	6.12 µM	18.9 µM	1.96 µM		2.54 µM	9.12 µM	23.3 µM
COc1ccc2c3c([nH]c2c1[N+](=O)[O-])C(C)N(C(=O)/C=C/c1ccccc1)CC3 (configuration not stated)	25.8 µM	8.31 µM	> 100 µM	> 100 µM		4.75 µM	> 100 µM	> 100 µM												
Cn1c(-c2c(N)n(Cc3ccc(Cl)cc3)c3nc(C#N)c(C#N)nc23)nc2ccccc21	17.4 µM		16.4 µM	3.57 µM	10.1 µM	> 50 µM	> 50 µM	15.8 µM	7.69 µM		3.13 µM	1.08 µM	2.35 µM	2.36 µM	10.8 µM	16.3 µM	> 50 µM	6.9 µM	4.62 µM	> 50 µM
CN(C)c1ccc2c(SCC(=O)OCC(=O)[C@@]3(O)CC[C@H]4[C@@H]5CCC6=CC(=O)C=C[C@]6(C)[C@H]5C(=O)C[C@@]43C)c3ccc(N(C)C)cc3nc2c1	> 47.4 µM	> 96.2 µM	> 100 µM	> 100 µM	> 64.6 µM	> 100 µM	> 100 µM	48.8 µM												> 100 µM
CCOc1ccc2c(-c3ccnc(Nc4cccc(C(F)(F)F)c4)n3)cnn2n1	> 19.6 µM	> 25 µM	> 25 µM	> 25 µM	24 µM	> 19.6 µM		> 23.8 µM	7.3 µM	8.2 µM	> 25 µM	22.4 µM	5.05 µM	9.04 µM	> 25 µM	7.87 µM		9.72 µM	> 16.1 µM	> 25 µM
CCCC(=O)C(CC)/C(CCC(=O)N(Cc1ccccc1)Cc1ccccc1)=N/NC(=O)C[N+](C)(C)C (configuration not stated)	> 100 µM	> 100 µM	> 100 µM		> 100 µM	> 100 µM	> 100 µM													
C=CC1(C)/C(=N\O)C(C)(CC)C(=O)N1O (configuration not stated)	> 100 µM	> 100 µM	> 100 µM		> 100 µM	> 100 µM	> 100 µM	> 100 µM												
CC(C)c1cccc2sc(NC(=O)C(=O)CC(=O)c3ccc(F)cc3)nc12	> 100 µM	> 100 µM	> 100 µM		> 100 µM	> 100 µM	> 100 µM	> 100 µM												
C/C(=C\c1ccccc1)C(O)S(=O)(=O)O (configuration not stated)	> 100 µM	> 100 µM	> 100 µM	> 100 µM		> 100 µM	> 100 µM	> 100 µM												
COc1cccc(C(=O)O)c1Cc1cccc2ccccc12	> 100 µM		> 100 µM	> 100 µM		> 100 µM	> 100 µM	> 100 µM												
COc1ccc(CNCCCN2C(=O)c3ccc4c5c(ccc(c35)C2=O)C(=O)N(CCCNCCCCNCCCN)C4=O)c(OC)c1OC	22.5 µM	23.1 µM	0.391 µM	4.79 µM		13.2 µM	4.11 µM	12.8 µM	3.53 µM	5.5 µM	0.194 µM	1.67 µM		6.01 µM	49.7 µM	0.955 µM	1.72 µM	2.71 µM	2.4 µM	26.3 µM
